Data published in PubChem BioAssay (NCI).
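Results reflect a 48-hour exposure of cells in 96-well plates to compound at five concentrations. At the TGI there is no net growth.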

Experiments:
Experiment in all cases: DTP human tumour cell line panel, 48 h
MOLT-4 leukemia = test system: MOLT-4 leukemia
OVCAR-3 ovarian = test system: OVCAR-3 ovarian
KM20L2 colon = test system: KM20L2 colon
SNB-19 CNS = test system: SNB-19 CNS
SW-620 colon = test system: SW-620 colon
SR leukemia = test system: SR leukemia
M19-MEL melanoma = test system: M19-MEL melanoma
CAKI-1 renal = test system: CAKI-1 renal
LOX IMVI melanoma = test system: LOX IMVI melanoma
NCI-H460 lung = test system: NCI-H460 lung
CCRF-CEM leukemia = test system: CCRF-CEM leukemia
DMS 114 small cell lung = test system: DMS 114 small cell lung
SK-MEL-5 melanoma = test system: SK-MEL-5 melanoma
UACC-62 melanoma = test system: UACC-62 melanoma
SF-295 CNS = test system: SF-295 CNS
OVCAR-4 ovarian = test system: OVCAR-4 ovarian
HOP-62 NSCLC = test system: HOP-62 NSCLC
SK-OV-3 ovarian = test system: SK-OV-3 ovarian
IGROV1 ovarian = test system: IGROV1 ovarian
OVCAR-8 ovarian = test system: OVCAR-8 ovarian
786-0 renal = test system: 786-0 renal
HL-60(TB) leukemia = test system: HL-60(TB) leukemia
UACC-257 melanoma = test system: UACC-257 melanoma
HT29 colon = test system: HT29 colon
HOP-92 NSCLC = test system: HOP-92 NSCLC
NCI-H23 lung = test system: NCI-H23 lung
SNB-75 CNS = test system: SNB-75 CNS
UO-31 renal = test system: UO-31 renal
SF-539 CNS = test system: SF-539 CNS
ACHN renal = test system: ACHN renal
U251 CNS = test system: U251 CNS
NCI-H522 lung = test system: NCI-H522 lung
HCT-116 colon = test system: HCT-116 colon
A498 renal = test system: A498 renal
RPMI-8226 leukemia = test system: RPMI-8226 leukemia
SF-268 CNS = test system: SF-268 CNS
TK-10 renal = test system: TK-10 renal
DMS 273 small cell lung = test system: DMS 273 small cell lung
K-562 leukemia = test system: K-562 leukemia
M14 melanoma = test system: M14 melanoma
A549 NSCLC = test system: A549 NSCLC
DLD-1 colon = test system: DLD-1 colon
LXFL 529 NSCLC = test system: LXFL 529 NSCLC
SN12C renal = test system: SN12C renal
XF 498 CNS = test system: XF 498 CNS
SNB-78 CNS = test system: SNB-78 CNS
MALME-3M melanoma = test system: MALME-3M melanoma
HOP-18 NSCLC = test system: HOP-18 NSCLC
SK-MEL-28 melanoma = test system: SK-MEL-28 melanoma
COLO 205 colon = test system: COLO 205 colon
KM12 colon = test system: KM12 colon
EKVX NSCLC = test system: EKVX NSCLC
HCT-15 colon = test system: HCT-15 colon
RXF 393 renal = test system: RXF 393 renal
HCC-2998 colon = test system: HCC-2998 colon
NCI-H226 lung = test system: NCI-H226 lung
OVCAR-5 ovarian = test system: OVCAR-5 ovarian
SK-MEL-2 melanoma = test system: SK-MEL-2 melanoma

Measured: TGI

CC(=O)OCC1OC(n2cc(F)c(=O)[nH]c2=O)C(NC(=O)N(CCCl)N=O)C(OC(C)=O)C1OC(C)=O (stereo unspecified)
> 100 µM: MOLT-4 leukemia | OVCAR-3 ovarian | KM20L2 colon | SNB-19 CNS | SW-620 colon | SR leukemia | M19-MEL melanoma | CAKI-1 renal | LOX IMVI melanoma | NCI-H460 lung | CCRF-CEM leukemia | DMS 114 small cell lung | SK-MEL-5 melanoma | UACC-62 melanoma | SF-295 CNS | OVCAR-4 ovarian | HOP-62 NSCLC | SK-OV-3 ovarian | IGROV1 ovarian | OVCAR-8 ovarian | 786-0 renal | HL-60(TB) leukemia | UACC-257 melanoma | HT29 colon | HOP-92 NSCLC | NCI-H23 lung | UO-31 renal | SF-539 CNS | ACHN renal | U251 CNS | NCI-H522 lung | HCT-116 colon | A498 renal | RPMI-8226 leukemia | SF-268 CNS | TK-10 renal | DMS 273 small cell lung | K-562 leukemia | M14 melanoma | A549 NSCLC | DLD-1 colon | LXFL 529 NSCLC | SN12C renal | XF 498 CNS | SNB-78 CNS | MALME-3M melanoma | HOP-18 NSCLC | SK-MEL-28 melanoma | COLO 205 colon | KM12 colon
78.3 µM: SNB-75 CNS

CCCCCN(CCCCC)C(=O)[C@@H](CCC(=O)O)NC(=O)c1cc2ccccc2[nH]1
62.2 µM: SK-MEL-2 melanoma
71.3 µM: XF 498 CNS
78.1 µM: U251 CNS
61 µM: CCRF-CEM leukemia
94.9 µM: COLO 205 colon
79.9 µM: UO-31 renal
57.5 µM: SK-MEL-28 melanoma
46.6 µM: MOLT-4 leukemia
34.2 µM: HCT-116 colon
25.6 µM: RXF 393 renal
67.6 µM: CAKI-1 renal
47.5 µM: UACC-62 melanoma
87.7 µM: HOP-62 NSCLC
53.4 µM: M14 melanoma
67.8 µM: HOP-92 NSCLC
40.9 µM: M19-MEL melanoma
35.4 µM: RPMI-8226 leukemia
82.9 µM: SF-268 CNS
39.7 µM: NCI-H522 lung
49.4 µM: SF-539 CNS
58 µM: NCI-H23 lung
> 100 µM: EKVX NSCLC | OVCAR-3 ovarian | KM20L2 colon | SNB-19 CNS | SW-620 colon | LOX IMVI melanoma | NCI-H460 lung | DMS 114 small cell lung | SF-295 CNS | OVCAR-4 ovarian | HCT-15 colon | SK-OV-3 ovarian | IGROV1 ovarian | OVCAR-8 ovarian | 786-0 renal | UACC-257 melanoma | HT29 colon | HCC-2998 colon | NCI-H226 lung | ACHN renal | A498 renal | OVCAR-5 ovarian | TK-10 renal | DMS 273 small cell lung | K-562 leukemia | A549 NSCLC | DLD-1 colon | LXFL 529 NSCLC | SN12C renal | SNB-78 CNS | MALME-3M melanoma | KM12 colon
41.2 µM: HL-60(TB) leukemia
61.8 µM: SNB-75 CNS
